From US11020340B2, “Compositions containing natural products and use thereof for skin and hair” (Seiberg Consulting, LLC, priority 2017, dated 2021)

Experiment: ROS-Glo H2O2 assay: removal or elimination of added hydrogen peroxide
Format: biochemical
Conditions: for microM H2O2: Table 2A calibration; for microM H2O2 / Hydrogen peroxide levels, Micro Molar H2O2: 30 minutes at room temperature; for Hydrogen peroxide levels, Micro Molar H2O2: Table 2B
Experimental: Broken-up algae powders (two independent batches) and the prototype formulations of Table 1A were evaluated for their biological activity in the removal or elimination of hydrogen peroxide by using the ROS-Glo™ H2O2 assay kit (Promega). The ROS-Glo™ H2O2 assay is a homogeneous, rapid and sensitive luminescent assay that measures the level of hydrogen peroxide directly in cell culture or in defined reactions. This assay allows identification of conditions or test compounds, such as small molecule inhibitors or inducers that alter ROS levels. An H2O2 Substrate is employed that reacts directly with H2O2 to generate a luciferin precursor. Upon addition of ROS-Glo™ Detection Reagent containing Ultra-Glo™ Recombinant Luciferase and Cysteine, the precursor is converted to luciferin by the d-Cysteine, and the produced luciferin reacts with Ultra-Glo™ Recombinant Luciferase to generate a luminescent signal that is proportional to H2O2 concentration. In the current study H2O2 was added into the reaction wells and the H2O2-degrading activity of the test agents, at various concentrations, was evaluated after 30 minutes of exposure at room temperature. Glutathione (GSH) served as a positive control and the luminescence results (RLU) of different GSH concentrations were calibrated to hydrogen peroxide concentrations (see Table 2A).
In a similar study, one batch of broken-up Porphyridium powder was evaluated for the same biological activity before and after gamma irradiation. The gamma irradiation used was considered weak, and ranged from about 5 to about 15 kGy.
A broken-up algae powder preparation was evaluated for biological activity (removal or elimination of hydrogen peroxide) using the ROS-Glo™ H2O2 assay kit (Promega), as described in Example 2. The powder was suspended in water and used “as is” (non-denatured) for the assay, or was heated to 100 C for 30 minutes to achieve a complete denaturation. Upon heating, the preparation changed its color from red/pink to yellow/green or to light yellow/colorless.

Structure (SMILES): N[C@@H](CCC(=O)N[C@@H](CS)C(=O)NCC(=O)O)C(=O)O [GSH, Glutathione]
- microM H2O2 (GSH 0.025 %): 151.69 µM
- microM H2O2 (GSH 0.050 %): 105.32 µM
- microM H2O2 (GSH 0.100 %): 67.84 µM
- microM H2O2 (GSH 0.200 %): 45.76 µM
- microM H2O2 (GSH 0.400 %): 14.26 µM
- microM H2O2 (GSH 0.800 %): -7.13 µM
- microM H2O2 (GSH 1.000 %): -10.27 µM
- Hydrogen peroxide levels, Micro Molar H2O2 (0.025 % test agent): 139.566 Micro Molar
- Hydrogen peroxide levels, Micro Molar H2O2 (0.050 % test agent): 112.262 Micro Molar
- Hydrogen peroxide levels, Micro Molar H2O2 (0.100 % test agent): 76.093 Micro Molar
- Hydrogen peroxide levels, Micro Molar H2O2 (0.200 % test agent): 53.453 Micro Molar
- Hydrogen peroxide levels, Micro Molar H2O2 (0.400 % test agent): 25.850 Micro Molar
- Hydrogen peroxide levels, Micro Molar H2O2 (0.800 % test agent): −6.940 Micro Molar
- Hydrogen peroxide levels, Micro Molar H2O2 (1.000 % test agent): −8.278 Micro Molar
- Micro Molar H2O2 (Table 2C, 0.0025 % Test/Ref): 58.797 Micro Molar
- Micro Molar H2O2 (Table 2C, 0.0050 % Test/Ref): 49.344 Micro Molar
- Micro Molar H2O2 (Table 2C, 0.0100 % Test/Ref): 52.736 Micro Molar
- Micro Molar H2O2 (Table 2C, 0.0250 % Test/Ref): 41.413 Micro Molar
- Micro Molar H2O2 (Table 2C, 0.0500 % Test/Ref): 28.936 Micro Molar
- Micro Molar H2O2 (Table 2C, 0.1000 % Test/Ref): 16.548 Micro Molar
- Micro Molar H2O2 (Table 2C, 0.2500 % Test/Ref): 6.375 Micro Molar
- Micro Molar H2O2 (Table 2C, 0.5000 % Test/Ref): −9.043 Micro Molar
- Micro Molar H2O2 (Table 3, 0.025 % test agent): 141.3439 Micro Molar
- Micro Molar H2O2 (Table 3, 0.05 % test agent): 98.16 Micro Molar
- Micro Molar H2O2 (Table 3, 0.1 % test agent): 53.43 Micro Molar
- Micro Molar H2O2 (Table 3, 0.2 % test agent): 10.87 Micro Molar
- Micro Molar H2O2 (Table 3, 0.4 % test agent): −14.384 Micro Molar
- Micro Molar H2O2 (Table 3, 0.8 % test agent): −14.5708 Micro Molar
